Experimental findings from BindingDB's records for doi:10.1021/acs.jnatprod.0c01036 (University of Illinois At Chicago, 2021) are described below.

This assay has as its target Kappa-type opioid receptor (Homo sapiens, UniProt P41145). Description: Displacement of [3H]-U69593 from human kappa opioid receptor expressed in U2OS cells by radioligand binding assay. (Loss of bound radioactivity is the signal in a displacement assay; it reports binding, not function.)

Molecules are shown by their SMILES.

Kappa-type opioid receptor, sequence (P41145 whole entry): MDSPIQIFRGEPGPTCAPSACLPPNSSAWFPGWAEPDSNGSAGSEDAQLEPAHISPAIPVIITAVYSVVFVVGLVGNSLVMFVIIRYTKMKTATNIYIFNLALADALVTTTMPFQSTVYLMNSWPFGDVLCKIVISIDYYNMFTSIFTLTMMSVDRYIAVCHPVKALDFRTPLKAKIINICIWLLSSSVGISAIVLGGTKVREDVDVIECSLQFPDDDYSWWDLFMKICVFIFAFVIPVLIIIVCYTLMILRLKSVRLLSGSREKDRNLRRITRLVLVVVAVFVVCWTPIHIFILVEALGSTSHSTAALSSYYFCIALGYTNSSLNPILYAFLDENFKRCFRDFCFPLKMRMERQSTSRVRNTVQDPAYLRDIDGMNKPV

Regarding `C/C=C1/CN2CC[C@@]34C(=Nc5ccccc53)C(C(=O)OC)[C@H]1C[C@H]24` (stereo partly specified), affinity was put at a Ki of 89 nM.
